The results in this text go back to patent publication US20090202661A1, “BEVERAGE MANUFACTURE, PROCESSING, PACKAGING AND DISPENSING USING ELECTROCHEMICALLY ACTIVATED WATER” (priority 2008, published 2009).

The structures appear in SMILES notation.

The data set can be described thus: Residue neutralization: recovery and breakdown of pesticide and fungicide active ingredients after exposure to anolyte dilutions. In kind it is physicochemical. The settings on record: 5 minutes, ambient temperature. On the procedure:
The breakdown of pesticide and fungicide residues by an oxidant ECA anolyte solution was evaluated as follows.
The oxidant anolyte solution was diluted using a 10 fold dilution series. As a control for this test, the potential for non-ECA based hydrolysis or chemical breakdown was assessed using two untreated control solutions, one being the tap water used as the diluent in the anolyte dilution series and the other being the non-activated brine solution that was used as the electrolysis feed solution prior to electro-activation.
The experiment was performed to contrast the difference in degree of recovery of a variety of pesticide and fungicide active ingredients (AI's) after the tap water and the various diluted anolyte solutions were ‘spiked’ with the same AI's at fixed inclusion rates. In each case, a one ppm cocktail of the active ingredients was added to a 100 ml aliquot of the test or control solution sample. The test samples were agitated with a mechanical stirrer for 5 minutes at ambient temperature and then extracted with an organic solvent and analyzed by either gas or liquid chromatography.

Setting [1] is: 0.25% Brine (nonactivated control).

`CNC(=O)O/N=C/C(C)(C)[S+](C)[O-]` (stereo not shown) [Aldicarb sulfoxide] had a ng found under setting [1] of 0.672 ng, a ng found (1% Anolyte solution) of 0.514 ng, a ng found (10% anolyte solution) of 0.000 ng and a ng found (100% anolyte solution) of 0.000 ng. In addition, the “% breakdown” value (1% Anolyte solution) was 15.8%, the “% breakdown” value (10% anolyte solution) worked out at 100% and the “% breakdown” value (100% anolyte solution) worked out at 100%.

Take `CNC(=O)O/N=C/C(C)(C)SC` [Aldicarb]: the ng found under setting [1] is listed as 0.920 ng, the ng found (1% Anolyte solution) came to 0.425 ng, the ng found (10% anolyte solution) came out at 0.000 ng and the ng found (100% anolyte solution) stood at 0.000 ng. Also, the “% breakdown” value is 49.5% (1% Anolyte solution), 100% (10% anolyte solution) and 100% (100% anolyte solution).

On to `COP(=S)(OC)SCn1nnc2ccccc2c1=O` [Azinphos-methyl], for which the ng found under setting [1] is 2.341 ng, the ng found (1% Anolyte solution) is recorded as 2.393 ng, the ng found (10% anolyte solution) amounted to 0.000 ng and the ng found (100% anolyte solution) was 0.000 ng. The “% breakdown” value by setting is: (1% Anolyte solution) 0.0%; (10% anolyte solution) 100%; (100% anolyte solution) 100%.

For `CCCCNC(=O)n1c(NC(=O)OC)nc2ccccc21` [Benomyl], the ng found by setting is: under setting [1], 0.970 ng; (1% Anolyte solution) 0.890 ng; (10% anolyte solution) 0.520 ng; (100% anolyte solution) 0.000 ng. Further, the “% breakdown” value is, setting by setting: (1% Anolyte solution) 8.0%; (10% anolyte solution) 45%; (100% anolyte solution) 100%.

For the compound `CCCCc1c(C)nc(NCC)nc1OS(=O)(=O)N(C)C` [Bupirimate], the ng found is, setting by setting: under setting [1], 1.250 ng; (1% Anolyte solution) 1.233 ng; (10% anolyte solution) 0.730 ng; (100% anolyte solution) 0.074 ng. For the same compound, the “% breakdown” value came to 0.0% (1% Anolyte solution), 52.0% (10% anolyte solution) and 100% (100% anolyte solution).

For the compound `CCOP(=S)(OCC)Oc1nc(Cl)c(Cl)cc1Cl` [Chlorpyrifos], the ng found is, setting by setting: under setting [1], 1.014 ng; (1% Anolyte solution) 1.039 ng; (10% anolyte solution) 0.05 ng; (100% anolyte solution) 0.049 ng. Further, the “% breakdown” value is, setting by setting: (1% Anolyte solution) 0.0%; (10% anolyte solution) 100%; (100% anolyte solution) 100%.

Compound `Cc1cc(C2CC2)nc(Nc2ccccc2)n1` [Cyprodinil] registered a ng found under setting [1] of 1.297 ng, a ng found (1% Anolyte solution) of 1.356 ng, a ng found (10% anolyte solution) of 0.068 ng and a ng found (100% anolyte solution) of 0.026 ng. Further, the “% breakdown” value reads like this: (1% Anolyte solution) 0.0%; (10% anolyte solution) 96.3%; (100% anolyte solution) 100%.

As to `CO/N=C(/C(=O)OC)c1ccccc1COc1ccccc1C` [Kresoxim-methyl], the ng found runs as follows: under setting [1], 1.300 ng; (1% Anolyte solution) 1.328 ng; (10% anolyte solution) 1.344 ng; (100% anolyte solution) 0.035 ng. Also, the “% breakdown” value (1% Anolyte solution) is on record as 0.0%, the “% breakdown” value (10% anolyte solution) is 0.0% and the “% breakdown” value (100% anolyte solution) was 100%.

For the compound `CCOC(=O)CC(SP(=S)(OC)OC)C(=O)OCC` (stereo not shown) [Malathion], the ng found is 1,327 ng under setting [1], 1.368 ng (1% Anolyte solution), 0.066 ng (10% anolyte solution) and 0.067 ng (100% anolyte solution). Also, the “% breakdown” value is, setting by setting: (1% Anolyte solution) 0.0%; (10% anolyte solution) 100%; (100% anolyte solution) 100%.

As for `CNC(=O)ON=C(C)SC` [Methomyl], the ng found is, setting by setting: under setting [1], 1.006 ng; (1% Anolyte solution) 0.634 ng; (10% anolyte solution) 0.000 ng; (100% anolyte solution) 0.000 ng. The “% breakdown” value is, setting by setting: (1% Anolyte solution) 36.6%; (10% anolyte solution) 100%; (100% anolyte solution) 100%.
